Laboratory results from patent publication US20250129070A1, “BIFUNCTIONAL ANDROGEN RECEPTOR COMPOUNDS” (priority 2023, published 2025).

System: AR / CBP ternary complex
Test: Ternary complex formation assay (sandwich ELISA, AR capture / CBP detection) in VCaP cell lysates
Type: cell-based
Conditions: 1.5 hours treatment, sandwich ELISA (AR capture, CBP or p300 detection)
Description: Preparation of Mouse Anti-AR Antibody Coated 96 Well Plates
Black MaxiSorp plates: coat with 50 μL of mouse 1/50 diluted AR antibody (Monoclonal Antibody (AR 441 from Thermo Fisher); diluted in phosphate buffered saline (PBS). Spin the liquid to the bottom of the wells, if necessary. Incubate overnight at 4° C. Next day, wash 3 times with 200 μL of TBST. Block with 200 μL of blocking buffer (5% BSA in TBST) at room temperature for 2 hours (BSA: A4503 or A2153 from Sigma). Wash plates 3 times with TBST. Plates are ready for lysates Preparation of dimerizer treated lysates
Culture cells in 96 wells at 50K VCaP cells/well for at least 3 days. Plate in 5% Omega charcoal stripped FBS in total volume of 200 uL. Treat with bifunctional for 1.5 hours by adding 1 μL of 200× stock in DMSO. Aspirate media/compound. Add and pipet-to-mix 70 μL of 1× AlphaLisa Lysis Buffer to each well (Perkin Elmer, AlphaLISA SureFire Ultra, diluted in water). Pipet up and down when adding lysis buffer to disrupt cells. Let lysis proceed for 30 min at 4° C.
Incubate for 1 hour at room temperature. Flick out the lysates. Wash 3 times with TBST. Add 75 μL of rabbit CBP or p300 antibody to each well (diluted 1:5000 in blocking buffer (5% BSA in TBST). CBP antibody: (D6C5) Rabbit mAb #7389; p300 antibody: (D8Z4E) Rabbit mAb #86377. Incubate overnight at 4° C. Wash 3 times with 300 uL TBST, each time on shaker for 5-10 min. Prepare goat anti-rabbit antibody conjugated to HRP (1/100K dilution in blocking buffer) Invitrogen Catalog number: 32260. Add 75 μL of HRP-conjugated goat anti-rabbit antibody. Incubate at room temperature for 1 hour. Flick out the HRP-antibody mixture. Wash 7-8 times with TBST, each time on shaker for 10 min. Later washes try to overflow the wells so that no residual HRP remains bound to the sides of the well. Prepare and add 75 uL/well of QuantaRed Enhance Chemifluorescent HRP Substrate solution. Immediately read fluorescence on BMG ClarioStar (ex: 570/em 585), and repeat the read in 5 minutes and 15 minutes.

`CC(=O)N1CCc2c(c(N3CCCc4cc(-c5cnn(C)c5)c(C(F)F)cc43)nn2C2CCN(C3CC4(CCN(c5ncc(C(=O)NC6C(C)(C)C(Oc7ccc(C#N)c(Cl)c7)C6(C)C)cn5)C4)C3)CC2)C1` (centres unmarked) [Compound 346, 2-[2-[4-[5-acetyl-3-[7-(difluoromethyl)-6-(1-methylpyrazol-4-yl)-3,4-dihydro-2H-quinolin-1-yl]-6,7-dihydro-4H-pyrazolo[4,3-c]pyridin-1-yl]-1-piperidyl]-6-azaspiro [3.4]octan-6-yl]-N-[3-(3-chloro-4-cyano-phenoxy)-2,2,4,4-tetramethyl-cyclobutyl]pyrimidine-5-carboxamide] and `CC(=O)N1CCc2c(c(N3CCCc4cc(-c5cnn(C)c5)c(C(F)F)cc43)nn2C2CCC(N3CCN(c4ncc(C(=O)NC5C(C)(C)C(Oc6ccc(C#N)c(Cl)c6)C5(C)C)cn4)CC3)CC2)C1` (centres unmarked) [Compound 391, 2-[4-[4-[5-acetyl-3-[7-(difluoromethyl)-6-(1-methylpyrazol-4-yl)-3,4-dihydro-2H-quinolin-1-yl]-6,7-dihydro-4H-pyrazolo[4,3-c]pyridin-1-yl]cyclohexyl]piperazin-1-yl]-N-[3-(3-chloro-4-cyano-phenoxy)-2,2,4,4-tetramethyl-cyclobutyl]pyrimidine-5-carboxamide] cannot be ordered by EC50: less than 1 nM for the first, less than 1 nM for the second.

First: CC(=O)N1CCc2c(c(N3CCCc4cc(-c5cnn(C)c5)c(C(F)F)cc43)nn2C2CN(CCN3CCN(c4ncc(C(=O)NC5C(C)(C)C(Oc6ccc(C#N)c(Cl)c6)C5(C)C)cn4)CC3)C2)C1 (centres unmarked) [Compound 161, 2-[4-[2-[3-[5-acetyl-3-[7-(difluoromethyl)-6-(1-methylpyrazol-4-yl)-3,4-dihydro-2H-quinolin-1-yl]-6,7-dihydro-4H-pyrazolo[4,3-c]pyridin-1-yl]azetidin-1-yl]ethyl]piperazin-1-yl]-N-[3-(3-chloro-4-cyano-phenoxy)-2,2,4,4-tetramethyl-cyclobutyl]pyrimidine-5-carboxamide]
Second: CC(=O)N1CCc2c(c(N3CCCc4cc(-c5cnn(C)c5)c(C(F)F)cc43)nn2C2CN(CCC3CCN(c4ncc(C(=O)NC5C(C)(C)C(Oc6ccc(C#N)c(Cl)c6)C5(C)C)cn4)CC3)C2)C1 (centres unmarked) [Compound 162, 2-[4-[2-[3-[5-acetyl-3-[7-(difluoromethyl)-6-(1-methylpyrazol-4-yl)-3,4-dihydro-2H-quinolin-1-yl]-6,7-dihydro-4H-pyrazolo[4,3-c]pyridin-1-yl]azetidin-1-yl]ethyl]-1-piperidyl]-N-[3-(3-chloro-4-cyano-phenoxy)-2,2,4,4-tetramethyl-cyclobutyl]pyrimidine-5-carboxamide]
The EC50 of the first is higher: 10 to 100 nM for the first, less than 1 nM for the second.

Compared with `COc1cc(OC2C(C)(C)C(NC(=O)c3ccc(N4CCC5(CC4)CC(Oc4ccc(-c6cc7c(cc6C(F)F)N(c6nn(C8CCOCC8)c8c6CN(C(C)=O)CC8)CCC7)cc4)C5)cc3)C2(C)C)ccc1C#N` (centres unmarked) [Compound 307, 4-[2-[4-[1-(5-acetyl-1-tetrahydropyran-4-yl-6,7-dihydro-4H-pyrazolo[4,3-c]pyridin-3-yl)-7-(difluoromethyl)-3,4-dihydro-2H-quinolin-6-yl]phenoxy]-7-azaspiro[3.5]nonan-7-yl]-N-[3-(4-cyano-3-methoxy-phenoxy)-2,2,4,4-tetramethyl-cyclobutyl]benzamide], `COc1cc(OC2C(C)(C)C(NC(=O)c3ccc(N4CCC5(CCC(n6nc(N7CCCc8cc(-c9cnn(C)c9)c(C(F)F)cc87)c7c6CCN(C(C)=O)C7)CC5)C4)cc3)C2(C)C)ccc1C#N` (centres unmarked) [Compound 405, 4-[8-[5-acetyl-3-[7-(difluoromethyl)-6-(1-methylpyrazol-4-yl)-3,4-dihydro-2H-quinolin-1-yl]-6,7-dihydro-4H-pyrazolo[4,3-c]pyridin-1-yl]-2-azaspiro[4.5]decan-2-yl]-N-[3-(4-cyano-3-methoxy-phenoxy)-2,2,4,4-tetramethyl-cyclobutyl]benzamide] is higher in EC50: 1 to 10 nM for the first, 10 to 100 nM for the second. The first is the more potent here.

`COc1cc(OC2C(C)(C)C(NC(=O)c3ccc(N4CC(C)C(CN5CCC(n6nc(N7CCCc8cc(C#N)c(C)cc87)c7c6CCN(C(C)=O)C7)CC5)C(C)C4)cc3)C2(C)C)ccc1C#N` (centres unmarked) [Compound 457, 4-[4-[[4-[5-acetyl-3-(6-cyano-7-methyl-3,4-dihydro-2H-quinolin-1-yl)-6,7-dihydro-4H-pyrazolo[4,3-c]pyridin-1-yl]-1-piperidyl]methyl]-3,5-dimethyl-1-piperidyl]-N-[3-(4-cyano-3-methoxy-phenoxy)-2,2,4,4-tetramethyl-cyclobutyl]benzamide] and `COc1cc(OC2C(C)(C)C(NC(=O)c3ccc(N4CC5(CCC(N6CCC(n7nc(N8CCCc9cc(C#N)c(C(F)F)cc98)c8c7CCN(C(C)=O)C8)CC6)CC5)C4)cc3)C2(C)C)ccc1C#N` (centres unmarked) [Compound 452, 4-[7-[4-[5-acetyl-3-[6-cyano-7-(difluoromethyl)-3,4-dihydro-2H-quinolin-1-yl]-6,7-dihydro-4H-pyrazolo[4,3-c]pyridin-1-yl]-1-piperidyl]-2-azaspiro[3.5]nonan-2-yl]-N-[3-(4-cyano-3-methoxy-phenoxy)-2,2,4,4-tetramethyl-cyclobutyl]benzamide] cannot be ordered by EC50: less than 1 nM for the first, less than 1 nM for the second.

`COc1cc(OC2C(C)(C)C(NC(=O)c3ccc(N4CC5(CCC(N6CCC(n7nc(N8CCCc9cc(-c%10cn(C)cn%10)c(C(F)F)cc98)c8c7CCN(C(C)=O)C8)CC6)CC5)C4)cc3)C2(C)C)ccc1C#N` (centres unmarked) [Compound 426, 4-[7-[4-[5-acetyl-3-[7-(difluoromethyl)-6-(1-methylimidazol-4-yl)-3,4-dihydro-2H-quinolin-1-yl]-6,7-dihydro-4H-pyrazolo[4,3-c]pyridin-1-yl]-1-piperidyl]-2-azaspiro[3.5]nonan-2-yl]-N-[3-(4-cyano-3-methoxy-phenoxy)-2,2,4,4-tetramethyl-cyclobutyl]benzamide] and `COc1cc(OC2C(C)(C)C(NC(=O)c3ccc(N4CC(N5CC6(CCC(n7nc(N8CCCc9cc(-c%10cnn(C)c%10)c(C(F)F)cc98)c8c7CCN(C(C)=O)C8)CC6)C5)C4)cc3)C2(C)C)ccc1C#N` (centres unmarked) [Compound 370, 4-[3-[7-[5-acetyl-3-[7-(difluoromethyl)-6-(1-methylpyrazol-4-yl)-3,4-dihydro-2H-quinolin-1-yl]-6,7-dihydro-4H-pyrazolo[4,3-c]pyridin-1-yl]-2-azaspiro[3.5]nonan-2-yl]azetidin-1-yl]-N-[3-(4-cyano-3-methoxy-phenoxy)-2,2,4,4-tetramethyl-cyclobutyl]benzamide] cannot be ordered by EC50: less than 1 nM for the first, less than 1 nM for the second.

`COc1cc(OC2C(C)(C)C(NC(=O)c3cnc(N4CC5(CCC(N6CCC(n7nc(N8CCCc9cc(-c%10cnn(C)c%10)c(C)cc98)c8c7CCN(C(C)=O)C8)CC6)CC5)C4)nc3)C2(C)C)ccc1C#N` (centres unmarked) [Compound 469, 2-[7-[4-[5-acetyl-3-[7-methyl-6-(1-methylpyrazol-4-yl)-3,4-dihydro-2H-quinolin-1-yl]-6,7-dihydro-4H-pyrazolo[4,3-c]pyridin-1-yl]-1-piperidyl]-2-azaspiro [3.5]nonan-2-yl]-N-[3-(4-cyano-3-methoxy-phenoxy)-2,2,4,4-tetramethyl-cyclobutyl]pyrimidine-5-carboxamide] and `COc1cc(OC2C(C)(C)C(NC(=N)c3ccc(N4CCC(N(C)C5CCC(n6nc(N7CCCc8cc(-c9cnn(C)c9)c(C(F)F)cc87)c7c6CCN(C(C)=O)C7)CC5)CC4)cc3)C2(C)C)ccc1C#N` (centres unmarked) [Compound 278, 4-[4-[[4-[5-acetyl-3-[7-(difluoromethyl)-6-(1-methylpyrazol-4-yl)-3,4-dihydro-2H-quinolin-1-yl]-6,7-dihydro-4H-pyrazolo[4,3-c]pyridin-1-yl]cyclohexyl]-methyl-amino]-1-piperidyl]-N-[3-(4-cyano-3-methoxy-phenoxy)-2,2,4,4-tetramethyl-cyclobutyl]benzamidine] cannot be ordered by EC50: less than 1 nM for the first, less than 1 nM for the second.

Compared with `CC(=O)N1CCc2c(c(N3CCCc4cc(-c5cnn(C)c5)c(C(F)F)cc43)nn2C2CCN(C(=O)C3CCN(c4ccc(C(=O)NC5C(C)(C)C(Oc6ccc(C#N)c(Cl)c6)C5(C)C)cc4)CC3)CC2)C1` (centres unmarked) [Compound 116, 4-[4-[4-[5-acetyl-3-[7-(difluoromethyl)-6-(1-methylpyrazol-4-yl)-3,4-dihydro-2H-quinolin-1-yl]-6,7-dihydro-4H-pyrazolo[4,3-c]pyridin-1-yl]piperidine-1-carbonyl]-1-piperidyl]-N-[3-(3-chloro-4-cyano-phenoxy)-2,2,4,4-tetramethyl-cyclobutyl]benzamide], `CC(=O)N1CCc2c(c(-c3cccc4cc(-c5cnn(C)c5)ncc34)nn2C2CCN(CC3C(C)CN(c4ncc(C(=O)NC5C(C)(C)C(Oc6ccc(C#N)c(Cl)c6)C5(C)C)cn4)CC3C)CC2)C1` (centres unmarked) [Compound 440, 2-[4-[[4-[5-acetyl-3-[3-(1-methylpyrazol-4-yl)-8-isoquinolyl]-6,7-dihydro-4H-pyrazolo[4,3-c]pyridin-1-yl]-1-piperidyl]methyl]-3,5-dimethyl-1-piperidyl]-N-[3-(3-chloro-4-cyano-phenoxy)-2,2,4,4-tetramethyl-cyclobutyl]pyrimidine-5-carboxamide] is lower in EC50: greater than 100 nM for the first, less than 1 nM for the second.
